In test [1] the target is Calcium/calmodulin-dependent protein kinase type II subunit beta (Homo sapiens) (UniProt Q13554). The settings on record: Compound concentration 1000.0 nM.
Test [2] deals with Hepatocyte growth factor receptor (Homo sapiens), P08581 [Y1235D]. As to conditions: Compound concentration 1000.0 nM.
Test [3] deals with Alpha-1A adrenergic receptor (Homo sapiens) (UniProt P35348). As to conditions: Compound concentration 10.0 uM.
The target of test [4] is Muscarinic acetylcholine receptor M4 (Homo sapiens) (UniProt P08173). As to conditions: Compound concentration 10.0 uM.
Test [5] deals with Calcium/calmodulin-dependent protein kinase type II subunit alpha (Homo sapiens) (UniProt Q9UQM7). The settings on record: Compound concentration 1000.0 nM.
Calcium/calmodulin-dependent protein kinase type II subunit alpha (Homo sapiens), sequence (Q9UQM7 whole entry): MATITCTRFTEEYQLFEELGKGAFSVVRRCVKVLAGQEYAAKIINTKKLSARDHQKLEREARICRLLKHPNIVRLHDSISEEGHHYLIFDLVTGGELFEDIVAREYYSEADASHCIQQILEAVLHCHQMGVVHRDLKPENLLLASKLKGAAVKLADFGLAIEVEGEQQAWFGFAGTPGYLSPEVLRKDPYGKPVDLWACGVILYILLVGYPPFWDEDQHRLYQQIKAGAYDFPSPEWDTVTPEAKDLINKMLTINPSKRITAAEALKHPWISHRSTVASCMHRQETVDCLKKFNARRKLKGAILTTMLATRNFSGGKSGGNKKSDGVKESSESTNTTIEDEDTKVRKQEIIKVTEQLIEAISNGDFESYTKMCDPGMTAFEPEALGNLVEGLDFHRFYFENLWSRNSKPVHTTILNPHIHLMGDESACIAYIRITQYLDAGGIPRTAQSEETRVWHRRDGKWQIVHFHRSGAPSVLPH
In test [6] the test system is Mast/stem cell growth factor receptor Kit (Homo sapiens), P10721 [D816V]. The settings on record: Compound concentration 1000.0 nM.
For test [7], the target named is MAP/microtubule affinity-regulating kinase 3 (Homo sapiens) (UniProt P27448). The settings on record: Compound concentration 1000.0 nM.
MAP/microtubule affinity-regulating kinase 3 (Homo sapiens), sequence (P27448 whole entry, looked up): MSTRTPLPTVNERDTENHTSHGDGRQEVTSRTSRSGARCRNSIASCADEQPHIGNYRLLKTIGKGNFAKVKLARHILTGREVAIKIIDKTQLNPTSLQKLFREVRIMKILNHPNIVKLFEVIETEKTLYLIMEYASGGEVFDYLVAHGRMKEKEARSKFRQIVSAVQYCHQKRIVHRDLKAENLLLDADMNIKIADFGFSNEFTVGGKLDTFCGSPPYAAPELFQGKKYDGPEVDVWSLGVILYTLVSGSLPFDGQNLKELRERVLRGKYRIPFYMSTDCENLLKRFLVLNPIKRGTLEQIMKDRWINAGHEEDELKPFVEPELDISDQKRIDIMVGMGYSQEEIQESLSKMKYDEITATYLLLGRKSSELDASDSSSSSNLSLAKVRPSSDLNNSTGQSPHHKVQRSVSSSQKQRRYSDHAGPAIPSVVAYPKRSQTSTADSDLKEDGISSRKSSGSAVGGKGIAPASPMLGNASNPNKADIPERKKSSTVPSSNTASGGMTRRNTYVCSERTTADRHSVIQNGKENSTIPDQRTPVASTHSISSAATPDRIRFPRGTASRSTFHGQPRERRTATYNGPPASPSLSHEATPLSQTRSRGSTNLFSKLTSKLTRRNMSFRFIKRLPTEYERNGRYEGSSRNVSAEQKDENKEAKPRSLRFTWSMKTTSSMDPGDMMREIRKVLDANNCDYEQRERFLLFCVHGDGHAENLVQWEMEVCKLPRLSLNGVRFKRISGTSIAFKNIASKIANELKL
The target in test [8] is T1, Serine/threonine-protein kinase BRSK1 (Homo sapiens) (UniProt Q8TDC3).
T1 sequence (whole entry): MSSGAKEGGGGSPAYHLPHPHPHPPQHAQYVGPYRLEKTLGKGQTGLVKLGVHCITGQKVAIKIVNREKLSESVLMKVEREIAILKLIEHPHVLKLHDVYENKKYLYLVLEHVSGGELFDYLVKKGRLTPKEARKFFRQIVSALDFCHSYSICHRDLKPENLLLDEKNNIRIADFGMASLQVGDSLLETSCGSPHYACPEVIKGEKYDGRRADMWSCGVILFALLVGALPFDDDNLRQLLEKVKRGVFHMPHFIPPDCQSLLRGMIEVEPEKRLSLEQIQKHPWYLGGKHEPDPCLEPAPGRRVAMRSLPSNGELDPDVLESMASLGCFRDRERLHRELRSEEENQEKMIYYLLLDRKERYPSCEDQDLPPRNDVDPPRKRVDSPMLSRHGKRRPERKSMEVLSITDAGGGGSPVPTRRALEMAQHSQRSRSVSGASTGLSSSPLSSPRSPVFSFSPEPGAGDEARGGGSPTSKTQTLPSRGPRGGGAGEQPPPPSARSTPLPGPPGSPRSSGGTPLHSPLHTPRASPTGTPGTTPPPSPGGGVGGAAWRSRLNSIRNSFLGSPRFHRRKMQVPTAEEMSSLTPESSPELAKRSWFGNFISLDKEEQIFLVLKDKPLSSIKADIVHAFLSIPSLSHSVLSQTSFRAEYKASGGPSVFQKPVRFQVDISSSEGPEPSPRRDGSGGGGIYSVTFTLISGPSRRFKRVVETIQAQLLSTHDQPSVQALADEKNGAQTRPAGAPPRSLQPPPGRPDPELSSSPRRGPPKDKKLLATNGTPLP
As to conditions: Compound concentration 1000.0 nM.

For test [9], the target named is Alpha-2A adrenergic receptor (Homo sapiens) (UniProt P08913). The settings on record: Compound concentration 10.0 uM.
For test [10], the target named is Transient receptor potential cation channel subfamily M member 6 (Homo sapiens) (UniProt Q9BX84). The settings on record: Compound concentration 1000.0 nM.
Test [11] has as its target Cyclin-dependent kinase-like 1 (Homo sapiens) (UniProt Q00532). As to conditions: Compound concentration 1000.0 nM.
In test [12] the target is Interleukin-1 receptor-associated kinase 1 (Homo sapiens) (UniProt P51617). The settings on record: Compound concentration 1000.0 nM.
Test [13] addresses Serine/threonine-protein kinase 36 (Homo sapiens) (UniProt Q9NRP7). The settings on record: Compound concentration 1000.0 nM.
In test [14] the target is LIM domain kinase 2 (Homo sapiens) (UniProt P53671). As to conditions: Compound concentration 1000.0 nM.
LIM domain kinase 2 (Homo sapiens), sequence (P53671 whole entry, looked up, the tested form may be a part): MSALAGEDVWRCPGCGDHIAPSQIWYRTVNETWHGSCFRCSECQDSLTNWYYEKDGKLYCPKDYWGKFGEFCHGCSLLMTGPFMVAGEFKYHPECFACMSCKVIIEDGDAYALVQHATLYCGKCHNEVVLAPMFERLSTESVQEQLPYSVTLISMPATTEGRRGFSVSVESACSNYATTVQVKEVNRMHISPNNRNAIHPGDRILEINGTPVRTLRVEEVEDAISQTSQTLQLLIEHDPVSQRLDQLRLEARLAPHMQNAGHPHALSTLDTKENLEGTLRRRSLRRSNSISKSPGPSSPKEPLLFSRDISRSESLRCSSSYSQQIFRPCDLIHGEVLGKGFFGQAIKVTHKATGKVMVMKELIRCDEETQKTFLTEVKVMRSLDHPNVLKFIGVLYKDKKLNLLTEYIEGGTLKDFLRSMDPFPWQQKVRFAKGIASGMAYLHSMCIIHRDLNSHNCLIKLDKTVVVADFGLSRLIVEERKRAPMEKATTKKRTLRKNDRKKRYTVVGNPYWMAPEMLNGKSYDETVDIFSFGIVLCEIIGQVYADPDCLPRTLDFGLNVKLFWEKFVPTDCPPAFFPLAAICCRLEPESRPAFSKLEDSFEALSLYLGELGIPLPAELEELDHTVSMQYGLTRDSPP
Test [15] concerns the target T2, Activin receptor type-1 (Homo sapiens) (UniProt Q04771).
T2 sequence (whole entry): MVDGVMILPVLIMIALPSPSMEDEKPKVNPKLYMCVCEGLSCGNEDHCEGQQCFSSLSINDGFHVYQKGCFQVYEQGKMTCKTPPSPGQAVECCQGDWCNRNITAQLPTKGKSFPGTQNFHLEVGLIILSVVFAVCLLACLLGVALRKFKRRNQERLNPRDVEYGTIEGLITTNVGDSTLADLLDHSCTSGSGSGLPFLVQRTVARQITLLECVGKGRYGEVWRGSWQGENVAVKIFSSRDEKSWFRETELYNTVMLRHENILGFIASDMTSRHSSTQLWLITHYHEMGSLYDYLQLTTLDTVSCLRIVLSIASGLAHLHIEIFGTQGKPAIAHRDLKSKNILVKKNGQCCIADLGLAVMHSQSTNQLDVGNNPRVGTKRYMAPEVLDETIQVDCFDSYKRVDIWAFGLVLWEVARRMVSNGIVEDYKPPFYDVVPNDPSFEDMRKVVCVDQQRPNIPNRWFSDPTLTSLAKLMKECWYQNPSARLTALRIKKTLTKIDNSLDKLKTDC
As to conditions: Compound concentration 1000.0 nM.

Test [16] has as its target BMP-2-inducible protein kinase (Homo sapiens) (UniProt Q9NSY1). As to conditions: Compound concentration 1000.0 nM.
The target of test [17] is D(3) dopamine receptor (Homo sapiens) (UniProt P35462). As to conditions: Compound concentration 10.0 uM.
Test [18] concerns the target Cyclin-dependent kinase-like 5 (Homo sapiens) (UniProt O76039). The settings on record: Compound concentration 1000.0 nM.
The target in test [19] is Serine/threonine-protein kinase MRCK alpha (Homo sapiens) (UniProt Q5VT25). The settings on record: Compound concentration 1000.0 nM.
Test [20] has as its target Receptor tyrosine-protein kinase erbB-4 (Homo sapiens) (UniProt Q15303). The settings on record: Compound concentration 1000.0 nM.

This note sets out measurements from ChEMBL document CHEMBL4507319 (2021).

Cyclin-dependent kinase-like 5 (Homo sapiens), sequence (O76039 whole entry): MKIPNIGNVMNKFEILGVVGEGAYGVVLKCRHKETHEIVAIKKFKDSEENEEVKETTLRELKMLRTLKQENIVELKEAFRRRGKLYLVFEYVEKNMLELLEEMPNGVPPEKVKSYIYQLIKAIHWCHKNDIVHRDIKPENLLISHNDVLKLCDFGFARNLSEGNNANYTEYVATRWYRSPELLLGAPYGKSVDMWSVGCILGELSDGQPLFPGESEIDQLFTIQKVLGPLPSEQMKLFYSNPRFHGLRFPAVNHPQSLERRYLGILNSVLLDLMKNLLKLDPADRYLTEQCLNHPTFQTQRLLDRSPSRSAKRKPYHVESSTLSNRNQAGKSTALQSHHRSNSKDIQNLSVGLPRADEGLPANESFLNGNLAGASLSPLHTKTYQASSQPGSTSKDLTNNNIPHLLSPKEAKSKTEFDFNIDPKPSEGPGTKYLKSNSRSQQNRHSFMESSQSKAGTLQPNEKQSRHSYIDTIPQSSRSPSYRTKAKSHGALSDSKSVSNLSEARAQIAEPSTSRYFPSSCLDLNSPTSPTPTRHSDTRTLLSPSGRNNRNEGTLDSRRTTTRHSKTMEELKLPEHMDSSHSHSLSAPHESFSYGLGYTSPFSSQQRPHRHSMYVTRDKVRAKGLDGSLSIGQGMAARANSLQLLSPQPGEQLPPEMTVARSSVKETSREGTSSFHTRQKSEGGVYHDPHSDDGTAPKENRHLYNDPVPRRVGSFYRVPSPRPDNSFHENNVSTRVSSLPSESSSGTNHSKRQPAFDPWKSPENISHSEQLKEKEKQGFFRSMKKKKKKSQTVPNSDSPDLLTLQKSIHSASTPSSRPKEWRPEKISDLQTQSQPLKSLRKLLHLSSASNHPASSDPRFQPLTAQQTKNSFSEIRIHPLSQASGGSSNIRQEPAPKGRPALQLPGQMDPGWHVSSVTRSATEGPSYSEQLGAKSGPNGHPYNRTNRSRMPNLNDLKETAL
Alpha-1A adrenergic receptor (Homo sapiens), sequence (P35348 whole entry): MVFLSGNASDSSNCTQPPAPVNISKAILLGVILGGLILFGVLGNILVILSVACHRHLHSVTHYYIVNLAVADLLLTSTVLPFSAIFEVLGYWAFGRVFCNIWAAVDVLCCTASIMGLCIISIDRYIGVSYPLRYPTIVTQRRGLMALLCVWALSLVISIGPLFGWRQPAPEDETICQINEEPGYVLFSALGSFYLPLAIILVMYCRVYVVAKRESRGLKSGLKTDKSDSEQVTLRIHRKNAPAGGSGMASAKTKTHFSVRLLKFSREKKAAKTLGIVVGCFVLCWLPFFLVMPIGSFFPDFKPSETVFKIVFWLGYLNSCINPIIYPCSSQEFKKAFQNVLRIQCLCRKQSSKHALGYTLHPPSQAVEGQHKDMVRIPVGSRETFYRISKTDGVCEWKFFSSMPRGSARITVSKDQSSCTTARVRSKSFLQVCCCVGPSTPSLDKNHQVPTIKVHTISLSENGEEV
Cyclin-dependent kinase-like 1 (Homo sapiens), sequence (Q00532 whole entry): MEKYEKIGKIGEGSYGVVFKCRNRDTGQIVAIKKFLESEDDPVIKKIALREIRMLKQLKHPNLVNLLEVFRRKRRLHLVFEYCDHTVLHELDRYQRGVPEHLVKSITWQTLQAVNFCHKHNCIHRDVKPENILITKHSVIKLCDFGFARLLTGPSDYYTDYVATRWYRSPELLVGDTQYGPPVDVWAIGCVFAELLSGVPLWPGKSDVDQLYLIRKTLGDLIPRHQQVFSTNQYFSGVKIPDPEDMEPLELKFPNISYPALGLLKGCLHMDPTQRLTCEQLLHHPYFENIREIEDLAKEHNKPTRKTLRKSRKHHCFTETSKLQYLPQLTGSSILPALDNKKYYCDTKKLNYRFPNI
Receptor tyrosine-protein kinase erbB-4 (Homo sapiens), sequence (Q15303 whole entry): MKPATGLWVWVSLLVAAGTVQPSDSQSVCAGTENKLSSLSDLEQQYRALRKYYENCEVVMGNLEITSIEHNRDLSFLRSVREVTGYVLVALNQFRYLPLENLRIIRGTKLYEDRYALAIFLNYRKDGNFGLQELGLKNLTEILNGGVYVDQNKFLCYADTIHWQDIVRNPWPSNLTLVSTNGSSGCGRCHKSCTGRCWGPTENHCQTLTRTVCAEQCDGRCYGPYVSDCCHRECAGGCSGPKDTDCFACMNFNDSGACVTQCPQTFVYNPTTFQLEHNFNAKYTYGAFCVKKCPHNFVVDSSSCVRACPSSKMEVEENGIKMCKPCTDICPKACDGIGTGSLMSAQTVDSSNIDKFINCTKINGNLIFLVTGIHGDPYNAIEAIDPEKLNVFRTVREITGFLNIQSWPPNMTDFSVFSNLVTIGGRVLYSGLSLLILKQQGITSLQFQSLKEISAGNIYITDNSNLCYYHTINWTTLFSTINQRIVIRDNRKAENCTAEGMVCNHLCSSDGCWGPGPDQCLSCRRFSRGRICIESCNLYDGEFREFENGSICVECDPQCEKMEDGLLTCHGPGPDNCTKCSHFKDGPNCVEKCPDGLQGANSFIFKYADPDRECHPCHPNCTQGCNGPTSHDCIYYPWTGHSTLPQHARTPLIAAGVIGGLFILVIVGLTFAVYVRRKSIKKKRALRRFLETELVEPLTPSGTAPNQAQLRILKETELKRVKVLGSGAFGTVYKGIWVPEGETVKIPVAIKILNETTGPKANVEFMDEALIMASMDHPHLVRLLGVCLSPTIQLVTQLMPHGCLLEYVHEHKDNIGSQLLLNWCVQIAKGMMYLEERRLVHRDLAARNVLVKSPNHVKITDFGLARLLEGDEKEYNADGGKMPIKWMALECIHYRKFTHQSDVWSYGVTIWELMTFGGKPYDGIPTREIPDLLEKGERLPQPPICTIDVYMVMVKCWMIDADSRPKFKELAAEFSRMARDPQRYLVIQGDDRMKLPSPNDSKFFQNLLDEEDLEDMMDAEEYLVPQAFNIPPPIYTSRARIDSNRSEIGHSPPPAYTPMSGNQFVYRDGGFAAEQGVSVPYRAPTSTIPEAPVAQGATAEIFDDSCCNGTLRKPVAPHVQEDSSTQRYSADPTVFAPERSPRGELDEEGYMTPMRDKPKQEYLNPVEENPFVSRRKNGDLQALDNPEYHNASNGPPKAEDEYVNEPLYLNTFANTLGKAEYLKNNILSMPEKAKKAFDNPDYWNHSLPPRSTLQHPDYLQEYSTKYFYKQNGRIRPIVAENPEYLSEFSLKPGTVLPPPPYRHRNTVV

On to `CCc1ccccc1C(=O)Nc1n[nH]c2c(C)c(F)c(C3C(C#N)=C(C)N(C)C(C)=C3C#N)cc12` [BAY-3827], for which the residual activity was 73% in test [1]; 16% in test [2]; 47% in test [5]; 55% in test [6]; 30% in test [7]; 55% in test [8]. The residual activity was 100% in test [10]; 87% in test [11]; 100% in test [12]; 100% in test [13]; 99% in test [14]; 100% in test [15]. Also, the residual activity in [16] is 100%; in [18], 100%; in [19] it was 100%; in [20] it was 84%. Besides, the inhibition in test [3] is 6.85%; in test [4] it was 8.27%; in test [9], 5.01%; in test [17], 10.4%.

On to `CC1=C(C#N)C(c2ccc3c(c2)c(NC(=O)c2ccccc2C)nn3C)C(C#N)=C(C)N1` [BAY-974], for which the residual activity was 86% in [1]; 74% in test [2]; 90% in [5]; 85% in [6]; 92% in test [7]; 100% in test [8]. The residual activity in test [10] was 91%; in [11], 72%; in test [12] it was 75%; in test [13], 87%; in test [14], 99%; in test [15], 99%. In addition, the residual activity was 100% in test [16], 79% in [18], 100% in [19] and 65% in test [20]. Besides, the inhibition was 1.96% in test [3], 6.87% in [4], 14.4% in test [9] and 2.48% in test [17].
